Assay results reported in US9981983B2, “Thienopyranones as kinase inhibitors” (SignalRx Pharmaceuticals, Inc., priority 2008, dated 2018).

Assays:
Format in all cases: cell-based
MCF7 (Breast) = test: Cell proliferation MTS assay, MCF7; conditions: Homo sapiens, 72 hours
Procedure: (§1) All cell lines were obtained from ATCC and cultured and plated according to ATCC recommendations. Cells were cultured in complete culture media containing 10% heat-inactivated fetal bovine serum (FBS, Mediatech, Inc.). For adherent cell lines, once cells reached 70% confluency, they were trypsinized and resuspended in phenol red free RPMI media (Mediatech, Inc.) plus 10% heat-inactivated FBS (assay buffer) and 100 μL aliquots were plated into each well of 96-well microtiter plates at a final density of 1,000-2,000 cells/well. Cells were incubated overnight at 37° C. in 5% CO2, and treated with test compounds on the next day. For suspension cell lines, cells were resuspended in assay buffer, plated into 96-well microtiter plates at a density of 10^4-10^5 cells/well/100 μL, and treatment was started on the same day. Cells were treated with vehicle (DMSO) and test compounds for 72 hours at concentration of 100, 70, 40, 20, 10, 5, 2.5, 1.25, 0.5 and 0.2 μM in four replicates at 37° C. in 5% CO2.

K562 (CML) = test: Cell proliferation MTS assay, K562; conditions: Homo sapiens, 72 hours
Procedure: as §1

MCF7 breast cancer cells = test: Mammosphere cancer stem cell inhibition assay; conditions: first experiment; for number of mammospheres: control 38±4
Procedure: A mammosphere cancer stem cell inhibition assay was set up using literature methods (T. M. Phillips et al. J. Natl. Cancer I. 2006, 98, 1777-1785, “Mammalian target of rapamycin contributes to the acquired apoptotic resistance of human mesothelioma multicellular spheroids”) using a subset of MCF7 breast cancer cells that posses the ability to evade anchorage independent apoptosis. Commercially available MCF7 breast cancer cells were cultured in MEM supplemented with 0.01 mg/mL of bovine insulin and 10% FBS at 37° C. in humidified atmosphere (5% CO2). Floating cells in the 2-day cultures were collected, washed, and resuspended in DMEM-F12 (50:50) supplemented with 0.4% BSA, 5 μg/mL bovine insulin, 20 ng/mL bFGF, and 10 ng/mL EGF. Cells were then passed through a […] sieve to remove any cell clusters and adjusted to a density of 10,000 cells/mL. Approximately 500 cells were plated in quadruplicate in a sterile poly-HEMA-treated 96-well plate. Cells were then treated with either control or test solutions consisting of the kinase inhibitor Lapatinib (1 μM), Cpd 28 (1 or 10 μM), Cpd 55 (1 or 10 μM), The numbers of mammospheres (clusters of cells numbering more than 4 or 5 per cluster) were then counted after 5-7 days.

PC3 cells = test: PC3 prostate cancer cell proliferation (WST); conditions: Homo sapiens, PC-3; 72 hours; read-out: IC50 PC3 Proliferation
SKMEL2 (Melanoma) = test: Cell proliferation MTS assay, SKMEL2; conditions: Homo sapiens, SK-MEL-2, 72 hours
Procedure: as §1

U87MG (Brain) = test: Cell proliferation MTS assay, U87MG; conditions: Homo sapiens, U-87 MG, 72 hours
Procedure: as §1

LNCaP cells = test: Oxidative stress of prostate cancer cells (8-iso-Prostaglandin F2α ELISA); conditions: for OD450 nm reading / 8-iso-Prostaglandin F2α generated: 20 μM; for 8-iso-Prostaglandin F2α generated: control 1.5 μg/mL
Procedure: LNCaP cells were obtained from the American Type Culture Collection (ATCC, Manassas, Va., Cat.# CRL-1740). 3.5 million cells from the prostate cancer line LNCaP were placed into each of three 10 cm culture dishes and allowed to grow overnight in complete RPMI 1640 media (Invitrogen, Carlsbad, Calif., Cat.#22400-105) with 10% fetal bovine serum (Invitrogen, Carlsbad, Calif., Cat#10438-026). Test compound was added into the dishes to the concentration of 0 and 20 μM and allowed to incubate at 37° C. in a 5% CO2 atmosphere for 2 and 24 hours. Following this the pH of the cell culture media was adjusted down to 3.5 with 2M HCl. After sitting at 4° C. for 15 minutes, the cell culture media from each culture dishes was applied to each of three C18 reverse phase columns (Biotage ISOLUTE, Part #220-0020-B, Lot #5223506B2A, www.biotage.com) which were prewashed with 10 mL/column of ethanol followed by 10 mL/column of deionized water. The loaded columns were then washed with 10 mL/column of water, followed by 10 mL/column of 15% ethanol, and finally 10 mL/column hexane. The desired samples were then eluted from the columns by addition of 10 mL/column ethyl acetate. The ethyl acetate was then evaporated to dryness using a rotating evaporator. Each sample was then dissolved in 500 μL of Assay Buffer provided in BioMol's Isoprostane Oxidative Stress Assay Kit A (Cat. # AK150-0001, Lot #3-08010825). Using the kit reagents according to the manufacturer's instructions the oxidative product 8-iso-Prostaglandin F2α was quantitated by ELISA. Also, using reagents from the kit a standard curve of oxidation product (8-iso-Prostaglandin F2α) versus optical density reading at 450 nm. From this curve optical density readings from the test samples were converted to μg/mL of the oxidation marker 8-iso-Prostaglandin F2α. This kit from BioMol is designed to determine the amount of the 8-iso-Prostaglandin F2α produced as a marker for the amount of oxidative stress experienced by the cells.

- IC50 (MCF7 (Breast)): 2270 nM
- IC50 (K562 (CML)): 3200 nM
- IC50 (PC3 cells): 1300 to 1910 nM
- IC50 (SKMEL2 (Melanoma)): 5200 nM
- IC50 (U87MG (Brain)): 1920 nM
Compound: O=c1cc(N2CCOCC2)oc2c(-c3ccc4c(c3)OCCO4)csc12 [Compound 28, 3-(2,3-dihydrobenzo[b][1,4]dioxin-6-yl)-5-morpholino-7H-thieno[3,2-b]pyran-7-one]
- inhibition of mammosphere production versus control (MCF7 breast cancer cells; 1 μM): approximately 60%
- number of mammospheres (MCF7 breast cancer cells; 1 μM): 15±2 mammospheres
- inhibition of mammosphere production versus control (MCF7 breast cancer cells; 10 μM): approximately 88%
- number of mammospheres (MCF7 breast cancer cells; 10 μM): 5±1 mammospheres
- OD450 nm reading (LNCaP cells; 2 hours exposure): 1.01 units
- 8-iso-Prostaglandin F2α generated (LNCaP cells; 2 hours): 18.0 µg/mL
- OD450 nm reading (LNCaP cells; 24 hours exposure): 0.96 units
- 8-iso-Prostaglandin F2α generated (LNCaP cells; 24 hours): 21.0 µg/mL
- increase of oxidation marker 8-iso-Prostaglandin F2α relative to untreated controls (LNCaP cells; 2 hours): 12 fold
- increase of oxidation marker 8-iso-Prostaglandin F2α relative to untreated controls (LNCaP cells; 24 hours): 14 fold
